From patent publication US8143279B2, “Benzimidazole-carboxamide compounds as 5-HT4 receptor agonists” (Theravance, Inc., priority 2005, dated 2012)

Key:
[1] = Pharmacokinetic study in the rat; format: in vivo
Procedure: Assay 6: Pharmacokinetic Study in the Rat
Aqueous solution formulations of test compounds were prepared in 0.1% lactic acid at a pH of between about 5 and about 6. Male Sprague-Dawley rats (CD strain, Charles River Laboratories, Wilmington, Mass.) were dosed with test compounds via intravenous administration (IV) at a dose of 2.5 mg/kg or by oral gavage (PO) at a dose of 5 mg/kg. The dosing volume was 1 mL/kg for IV and 2 mL/kg for PO administration. Serial blood samples were collected from animals pre-dose, and at 2 (IV only), 5, 15, and 30 min, and at 1, 2, 4, 8, and 24 hours post-dose.
Standard pharmacokinetic parameters were assessed by non-compartmental analysis (Model 201 for IV and Model 200 for PO) using WinNonlin (Version 4.0.1, Pharsight, Mountain View, Calif.). The maximum in the curve of test compound concentration in blood plasma vs. time is denoted Cmax. The area under the concentration vs. time curve from the time of dosing to the last measurable concentration (AUC(0-t)) was calculated by the linear trapezoidal rule.

[2] = Dynamic moisture sorption assessment; format: physicochemical; conditions: 25° C.
Procedure: Dynamic Moisture Sorption Assessment
Dynamic moisture sorption (DMS) assessment was performed at 25° C. using a VTI atmospheric microbalance, SGA-100 system (VTI Corp., Hialeah, Fla. 33016). A sample size of approximately 5-10 mg was used and the humidity was set at the ambient value at the start of the analysis. A typical DMS analysis consisted of three scans: ambient to 2% relative humidity (RH), 2% RH to 90% RH, 90% RH to 5% RH at a scan rate of 5% RH/step. The mass was measured every two minutes and the RH was changed to the next value (±5% RH) when the mass of the sample was stable to within 0.02% for 5 consecutive points.

[3] = Solid state stability assessment; format: physicochemical; conditions: three months at 40° C. and 75% RH, open glass vials
Procedure: Solid State Stability Assessment
Samples of the crystalline compound of Form I, prepared according to the process of Example 216, were stored in multiple open glass vials at 40° C. and 75% RH. At specific intervals, the contents of a representative vial was removed and analyzed by DSC, TGA, PXRD, and by HPLC for chemical purity.

[4] = Procedure: Thermogravimetric analysis (TGA) was performed using a TA Instruments Model Q-500 module. Data were collected and analyzed using TA Instruments Thermal Advantage for Q Series™ software. A sample weighing about 2 mg was placed in an aluminum pan on a platinum cradle and scanned from ambient temperature to about 300° C. with a linear heating rate of 10° C./min. The balance and furnace chambers were purged with nitrogen during use.
[5] = male Sprague-Dawley rats, PO 5 mg/kg, blood plasma

COC(=O)N1CCC(CN2CCC(CNC(=O)c3cccc4[nH]c(C(C)C)nc34)CC2)CC1 [Example 1, 4-(4-{[(2-isopropyl-1H-benzoimidazole-4-carbonyl)-amino]methyl}piperidin-1-ylmethyl)piperidine-1-carboxylic acid methyl ester]
AUC(0-t) [1, 5]: 1200 ng·h/mL
Cmax [1, 5]: 800 ng/mL
bioavailability ([1]; male, Sprague-Dawley, plasma, PO 5 mg/kg vs IV 2.5 mg/kg, read-out: oral bioavailability (F(%))): ~75%

COC(=O)N1CCC(CN2CCC(CNC(=O)c3cccc4[nH]c(C(C)C)nc34)CC2)CC1 [Form I, 4-(4-{[(2-isopropyl-1H-benzoimidazole-4-carbonyl)-amino]methyl}piperidin-1-ylmethyl)piperidine-1-carboxylic acid methyl ester]
weight change (moisture sorption) ([2]; 2% to 90% RH): less than 0.25%
weight change (moisture sorption) ([2]; critical humidity range of 40% to 75% RH): less than 0.1%
change in the DSC or TGA thermograms and PXRD pattern after storage [3]: no detectable change
chemical purity of the stored sample (HPLC) [3]: 99.5%
onset of degradation (TGA) [4]: above 240 °C
